Key:
[1] = tested on: rats with surgical manipulation of the intestine; assay: Rat in vivo gastrointestinal transit of fluorescein-labeled dextran (geometric center); conditions: surgically manipulated rats, 24 h postoperatively, i.v. pretreatment 1 h before surgery; glycine 170 mg/kg, valine 263.5 mg/kg; SM vehicle GC=5.2±0.7
Experimental: (§1) Age matched animals treated with vehicle (normal saline) or valine (263.5 mg/kg, osmotic control) at appropriate time points and at equal volumes served as controls.
(§2) The rodent intestine was subjected to a standardized degree of surgical manipulation as described previously (14). Rats were anesthetized by isoflurane inhalation and the abdomen was opened by a midline laparotomy. The cecum was eventrated and laid out onto a moist gauze. Then, the intestine was inspected along its length and gently compressed using moist cotton applicators. The midline incision was closed by two layers of continuous sutures. All operative procedures were performed under sterile conditions with the intestine being handled only by instruments and never touched directly. Animals were killed at specific time points postoperatively by isoflurane anesthesia inhalation overdose and heart incision.
(§3) Methods: ACI-rats (180-220 g) underwent standardized surgical manipulation of the intestine. […] Age matched animals treated with vehicle or valine (osmotic control) at appropriate time points and at equal volumes served as controls. […] Postoperative mediator mRNA expression in the intestinal muscularis was determined by real-time RT PCR. Leukocyte extravasation was investigated in muscularis whole-mounts. Nitrite production was measured in muscularis cultures. In vivo transit of FITC-dextran was measured using geometric center analysis (GC). In vitro circular muscle contractility was assessed in a standard organ bath. Statistical analysis: unpaired Student t test, p<0.05, mean±SEM.

[2] = tested on: jejunal circular smooth muscle; assay: In vitro bethanechol stimulated contractile activity of jejunal circular muscle strips; assay type: in vivo, rat; conditions: manipulated rats, 170 mg/kg glycine or valine pretreatment, 100 mM bethanechol; control 3.2±0.2, SM vehicle 1.9±0.1
Experimental: as §1, §2
Mechanical in vitro activity of the rat mid-jejunum was evaluated at 24 hours postoperatively using smooth muscle strips of the circular muscularis as described previously (rats: N=5-11) (14). After dissection and a 30 minute equilibration period, the individual muscles were incrementally stretched to L0. Then after recording spontaneous contractility for 30 minutes, dose response curves were generated using increasing concentrations of the muscarinic agonist bethanechol ([…]) for 10 minutes and intervening wash periods (KRB) of 10 minutes. The contractile response was recorded and analyzed as g/mm2/sec over a 10 minute period.
as §3

[3] = tested on: IL-6 mRNA; assay: Real-time RT-PCR of muscularis IL-6 mRNA 3 hours postoperatively; assay type: in vivo, rat; conditions: surgically manipulated rats, 3 hours postoperatively
Experimental: as §1, §2
mRNA Expression Analysis: Postoperative mediator mRNA expressions in the small intestinal muscularis were analyzed using SYBR Green two-step real-time RT-PCR as previously described, (N=4-6). […] Total mRNA extraction was performed using the guanidium-thiocyanate phenol-chloroform extraction method. Equal aliquots (200 ng) of total RNA from each sample, quantified by spectrophotometer, were processed for complimentary DNA (cDNA) synthesis. Primer sequences were used as described previously (tumor necrosis factor-a, TNF-a) (35), or designed according to published sequences 36-41, (GenBank accession numbers: NM_017008 [glyceraldehyde phosphate dehydrogenase (GAPDH)], AF233596 [cyclo-oxygenase-2 (COX-2)], NM_012967 [intercellular adhesion molecule-1 (ICAM-1)], M26744 [interleukin-6 (IL-6)] and NM_012611 [inducible nitric oxide synthase (iNOS)]), using Primer Express software (PE Applied Biosystems, Foster City, Calif.) and purchased from Life Technologies (Rockville, Md.). GAPDH was used as an endogenous control. The efficiency and equality of the real-time PCR primer pairs were determined by amplifying serial dilutions of muscularis cDNA. For each target gene different MgCl2 (3 to 5 mM) concentrations were tested to optimize the PCR amplification. […] Relative quantification was performed using the comparative CT method as described by Schmittgen et al. (42).
Methods: ACI-rats (180-220 g) underwent standardized surgical manipulation of the intestine. […] Postoperative mediator mRNA expression in the intestinal muscularis was determined by real-time RT PCR. […] Nitrite production was measured in muscularis cultures. In vivo transit of FITC-dextran was measured using geometric center analysis (GC). In vitro circular muscle contractility was assessed in a standard organ bath. […]

[4] = tested on: MPO positive leukocytes in the intestinal muscularis; assay: Myeloperoxidase (MPO) histochemistry: leukocyte infiltration in muscularis whole-mounts; assay type: in vivo, rat; conditions: manipulated rats, 24 h postoperatively; glycine 170 mg/kg or valine (263.5 mg/kg); SM vehicle 95±6.4
Experimental: as §1, §2
Histochemistry and Immunohistochemistry: Leukocyte infiltration was quantified on rat whole-mounts of the intestinal muscularis as described previously (N=6-8) (43). Myeloperoxidase (MPO) positive cells were detected using a mixture of 30 mg Hanker-Yates reagent, 30 ml KRB and […] 3% hydrogen peroxide for 10 minutes. Leukocytes were counted in 5 randomly chosen areas in each specimen (3 specimen per animal) at a magnification of 200×.
as §3

[5] = tested on: nitrite (nitric oxide); assay: Nitrite release (Griess reaction) from organ cultured muscularis; assay type: in vivo, rat; conditions: manipulated rats, glycine 170 mg/kg or valine
Experimental: as §1, §2
Tissue culture and determination of nitrite and prostanoid release in supernatant: The rat small intestine and colon were processed for tissue culture at 24 hours as described previously, (N=5-8) (25). Briefly, the muscularis was isolated by stripping the muscularis from the mucosa and then cut into small pieces and washed twice in Hank's balanced salt solution (HBSS) with 100 U/ml penicillin G and 100 μg/ml streptomycin. Aliquots of muscularis ([…]) were incubated (37° C., 5% CO2) in 6-well tissue culture plates containing 3 ml of supplemented Dulbecco's modified Eagle medium (DMEM)-F12 with 100 U/ml penicillin G and 100 μg/ml streptomycin. After an incubation period of 24 hours, 500 μl aliquots of supernatant were collected, frozen in liquid nitrogen and stored at −80° C. The muscle tissue was blotted dry, and the weight was estimated. To estimate the generation of NO from the intestinal muscularis, nitrite production was measured by the Griess reaction (44). Supernatant from the tissue culture was mixed with equal amount of Griess reagent (0.1% N-(1-naphtyl)ethyl-enediamine dihydrochloride and 1% sulfanilamide in 6% phosphoric acid; 1:1) and incubated at room temperature for 10 minutes. The absorbance at 550 nm was measured with a microplate reader and compared with standard prepared from serial dilutions of sodium nitrite. Each standard and supernatant sample was analyzed in duplicate, and the mean value of nitrite production was normalized to the tissue weight.
as §3

[6] = tested on: prostanoids; assay: Prostanoid release (ELISA) from organ cultured muscularis; assay type: in vivo, rat; conditions: manipulated rats, glycine 170 mg/kg or valine
Experimental: Age matched animals treated with vehicle (normal saline) or valine (263.5 mg/kg, osmotic control) at appropriate time points and at equal volumes served as controls. The rodent intestine was subjected to a standardized degree of surgical manipulation as described previously (14). Rats were anesthetized by isoflurane inhalation and the abdomen was opened by a midline laparotomy. The cecum was eventrated and laid out onto a moist gauze. Then, the intestine was inspected along its length and gently compressed using moist cotton applicators. The midline incision was closed by two layers of continuous sutures. All operative procedures were performed under sterile conditions with the intestine being handled only by instruments and never touched directly. Animals were killed at specific time points postoperatively by isoflurane anesthesia inhalation overdose and heart incision. The synthesis of prostanoids released into the tissue culture supernatant over a period of 24 hours was assayed by ELISA. After incubation the culture median and tissue was inspected, 500 μL aliquots of supernatant were frozen in liquid nitrogen and stored at −80° C. The muscle tissue was blotted dry and weighed. Culture supernatants were assayed for the measurement of prostaglandin secretion by enzyme immunoassay (Cayman Chemicals, Ann Arbor, Mich.). The ELISA was carried out in a 1:10 and 1:30 dilution. The assay was corrected for wet tissue weights and the prostaglandin ELISA kit sensitivity was 20 pg/ml.

[7] = tested on: mice subjected to surgical intestinal manipulation (SM); assay: Gastrointestinal transit (geometric center) after surgical intestinal manipulation, IL-10 treatment; assay type: in vivo; conditions: SM + IL-10 12.5 μg/kg s.c. before and after; control=10.6±0.3, SM=4.6±0.6
Experimental: (§4) Methods: Mice were subjected to surgical intestinal manipulation (SM) to induce ileus. Before and after animals were treated with IL-10 (12.5 μg/kg, s.c.). Gastrointestinal transit and organ bath measured motility. Histochemistry on jejunal muscularis whole-mounts quantified neutrophil recruitment. Muscularis mediator expressions were measured by RT-PCR, Griess reaction, ELISA and Luminex (N=4 each).

[8] = tested on: jejunal circular muscle; assay: Organ bath: jejunal circular muscle contractions to bethanechol, IL-10 treatment; assay type: in vivo, mice; conditions: SM + IL-10 12.5 μg/kg s.c.; 100 μM bethanechol; SM alone 59.2±4.8%
Experimental: as §4

[9] = tested on: muscularis neutrophil recruitment; assay: Histochemistry on jejunal muscularis whole-mounts: neutrophil recruitment, IL-10 treatment; assay type: in vivo, mice; conditions: IL-10 treatment compared to SM with vehicle
Experimental: as §4

[10] = tested on: IL-6, IL-1β and MCP 1 mRNAs; assay: RT-PCR of muscularis mediator mRNAs, IL-10 treatment; assay type: in vivo, mice; conditions: treated animals vs SM
Experimental: as §4

[11] = tested on: GM-CSF, VEGF, IL-1α, IL-6, MCP-1 and MIP-1α; assay: Luminex mediator release from muscularis, IL-10 treatment; assay type: in vivo, mice; conditions: SM + IL-10 vs SM
Experimental: as §4

[12] = tested on: NO; assay: Griess reaction NO release from muscularis, IL-10 treatment; assay type: in vivo, mice; conditions: SM + IL-10; control=47.1, SM=607.7
Experimental: as §4

[13] = tested on: prostanoids; assay: ELISA prostanoid release from muscularis, IL-10 treatment; assay type: in vivo, mice; conditions: SM + IL-10; control=4033.4, SM=13111
Experimental: as §4

CC(C)[C@H](N)C(=O)O [valine, reference compound] was tested, and the “geometric center (GC) of gastrointestinal transit” value [1] was 6.2±0.5, the “mean contractile force, bethanechol stimulated” value [2] was 2.1±0.2 g/mm2/s and the “postoperative induction of IL-6 mRNA” value [3] was “no effect”. For the same molecule, the “infiltrating MPO positive leukocytes” value [4] was 93±2.7 cells/field at 200×, the “nitrite release, fold increase over control, colon” value ([5]; colonic muscularis 24 h organ culture, SM vehicle 10.9-fold) was 9.5 fold and the “nitrite release, fold increase over control, jejunum” value ([5]; jejunal muscularis 24 h organ culture, SM vehicle 11.4-fold) was 12.0 fold. The “prostanoid release, fold of control, colon” value ([6]; colonic muscularis 24 h organ culture, SM 3.1-fold) was 1.5 fold and the “prostanoid release, fold of control, jejunum” value ([6]; jejunal muscularis 24 h organ culture, SM 5.9-fold) was 3.4 fold.

B1: interleukin-10 (protein, UniProt P18893 19-178, looked up)
Interleukin-10: SRGQYSREDNNCTHFPVGQSHMLLELRTAFSQVKTFFQTKDQLDNILLTDSLMQDFKGYLGCQALSEMIQFYLVEVMPQAEKHGPEIKEHLNSLGEKLKTLRMRLRRCHRFLPCENKSKAVEQVKSDFNKLQDQGVYKAMNEFDIFINCIEAYMMIKMKS
B1 was tested, and the “geometric center (GC) of gastrointestinal transit” value [7] was 10.8±0.4, the “jejunal circular muscle contractions to bethanechol, % of control” value [8] was 93.6±21.1% and the muscularis neutrophil recruitment [9] was “significantly less”. For the same molecule, the “induction of IL-6, IL-1β and MCP 1 mRNAs after SM” value [10] was “less induction”, the “mediator release (GM-CSF, VEGF, IL-1α, IL-6, MCP-1 and MIP-1α)” value [11] was “significantly diminished” and the NO release [12] was 49.1 µM/g. The “prostanoids (PG) release” value [13] was 3946.7 pg/mL/mg.

— patent US20090238792A1, “SUPPRESSION OF POSTOPERATIVE ILEUS” (University of Pittsburgh of the Commonwealth System of …, priority 2007, published 2009)
